The record followed here is patent US20040057913A1, “Antioxidant and skin preparations for external use” (priority 2000, published 2004).

In the experiment the test system is ICR male mouse. In words: Mouse ear swelling suppressing activity (TPA-induced edema). It counts as in vivo. Particulars: applied to the ear 30 minutes before the TPA application; measured 4 hours after TPA; Mozuku extract 0.25 or 0.5 mg/ear, indomethacin 0.2 mg/ear (FIG. 4). On the procedure: Mouse ear swelling suppressing activity of the Mozuku extract was examined as follows. The thickness of the ear of an ICR male mouse (age: 5 weeks) was measured using a thickness gauge (Digimatic Indicator 543, manufactured by Mitsutoyo Co., Ltd.). The Mozuku extract was applied to the ear in the amount of 0.25 mg/ear or 0.5 mg/ear. As a comparative test, an indomethacin solution, prepared by dissolving indomethacin at a concentration of 1.0% in 70% acetone, was applied to the mouse ear in the amount of 0.2 mg/ear. 30 minutes after the application, 10 μl of a […] solution of 12-O-tetradecanoylphorbol-13-acetate (TPA) in 70% acetone was applied to the in and out sides of the mouse ear to induce a skin reaction. The thickness of the ear skin was measured after 4 hours at which the value of the swelling became the maximum. The ratio of the measured thickness to the thickness of the ear skin before the edema induction was calculated as the ratio of edema. The thickness of both the right and left ear skins was measured and the values were averaged to determine the ear skin thickness of the mouse.

Take `COc1ccc2c(c1)c(CC(=O)O)c(C)n2C(=O)c1ccc(Cl)cc1` [indomethacin]: the “edema suppressing effect (ratio of edema, ear skin thickness)” value is reported as “remarkable edema suppressing effect”.
